How the values were obtained:
SARS-CoV-2 = SARS-CoV-2 viral infectivity assay; type: cell-based; details: A549+ACE2 cells; for direct antiviral effect on SARS-CoV-2 on their own: 72 h post infection, compound alone; for synergy with remdesivir, SARS-CoV-2: combination with remdesivir, #79: 60 μM, #96: […] μM, #102: 25 μM
HCoV-OC43 = HCoV-OC43 viral infectivity assay; type: cell-based; details: HCoV-OC43, HMC3 cells; combination with remdesivir; #79: 60 μM, #96: […] μM, #102: 25 μM
Protocol: HMC3 cells were seeded into black 96-well plates at 90% confluency. The next day, media was removed and replaced with complete media containing compounds/carrier 2 h prior to infection. After that, 5 μl of HCoV-OC43 virus was added to each well at an MOI of 0.005 for a final total volume of 100 μl/well. The plates were incubated at 33 °C. The viral suspension was removed after 12 h and drugs were added back to the cells to further incubate at 33 °C for 36 h. At 48 h post infection, cells were fixed with 4 % PFA in the media for 15 min. Residual PFA was quenched with a 50 mM NH4Cl and 100 mM NaCl solution. Cells were permeabilized and blocked in 5% FBS, 3% BSA, 0.05% Triton X-100 and 0.005% NaN3 in PBS for an hour. Anti-N antibody (Sigma 542-7D) was diluted in 4% FBS in PBS at 1:1000 dilution and was applied at 4 °C for 16 h. After several washing steps, cells were stained with AlexaFluor 594 and DAPI. For determination of cytotoxicity, HMC3 cells were seeded into opaque white wall 96-well plates. The following day, media was removed, replaced with media containing compounds/carrier and incubated for 48 h. After 48 h, cell viability was determined using alamarBlue™ Cell Viability Reagent using an Infinite 200 PRO microplate reader (Tecan).
Plates were scanned on a Citation 5 Imaging Multi-Mode Reader (BioTek). Gen5 software (version 3.10) was used for both image acquisition and analysis. A total number of 16 images/well were collected at 4x magnification to span the entire well. DAPI channel was used to build primary masks for the nucleus. Secondary masks were built within a 15 μm ring around the primary nuclear mask. Infection efficiencies were calculated from the ratio of the total fluorescence intensity within the secondary mask and the total area of the secondary mask for each well. Microscope images were prepared for publication using ImageJ (version 1.53i).

[1] = clinical studies in Japan, gastric diseases; cited from earlier work

SMILES | direct antiviral effect on SARS-CoV-2 on their own (SARS-CoV-2) | synergy with remdesivir, SARS-CoV-2 (SARS-CoV-2) | lowering of the EC50 of remdesivir (HCoV-OC43) | tolerability in humans [1]
O=C(NCc1ccc(F)cc1)C1C(=O)N(O)C(=O)c2cc(C(F)(F)F)ccc21 (stereo not shown) [#79, 7-trifluoromethyl-N-(4-fluorobenzyl)−2-hydroxy-1,3-dioxo-4H-isoquinoline-4-carboxamide] | no direct antiviral effect was detected | synergized with remdesivir | ~ 5 fold | 
CC(C)=CCc1c(O)ccc(C(=O)/C=C/c2ccc(O)cc2)c1O [#96, Isobavachalcone] | no direct antiviral effect was detected | synergized with remdesivir | ~ 5 fold | 
CC(C)=CCOc1ccc(/C=C/C(=O)c2ccc(OCC=C(C)C)cc2OCC(=O)O)cc1 [#102, Sofalcone, reference compound] | no direct antiviral effect was detected | synergized with remdesivir | ~ 5 fold | well tolerated by humans
